Reference: ChEMBL document CHEMBL1147514 (Bioorg Med Chem Lett, 2004)
Several values for one entry are separate records, joined by “and”; a condition that tells them apart may be missing. Identical values can stand only once.

Key:
[1] = species on record: Mus musculus; test: Antinociceptive activity was tested in the mouse tail-flick test at 112 nM; type: functional
[2] = target: T1, Neuronal acetylcholine receptor; alpha4/beta2 (Rattus norvegicus, UniProt P09483+P12390); test: Binding affinity towards rat Nicotinic acetylcholine receptor alpha4-beta2 expressed in Xenopus oocytes using [3H]epibatidine as radioligand; type: cell-based, Oocyte
T1 sequence (P09483 whole entry): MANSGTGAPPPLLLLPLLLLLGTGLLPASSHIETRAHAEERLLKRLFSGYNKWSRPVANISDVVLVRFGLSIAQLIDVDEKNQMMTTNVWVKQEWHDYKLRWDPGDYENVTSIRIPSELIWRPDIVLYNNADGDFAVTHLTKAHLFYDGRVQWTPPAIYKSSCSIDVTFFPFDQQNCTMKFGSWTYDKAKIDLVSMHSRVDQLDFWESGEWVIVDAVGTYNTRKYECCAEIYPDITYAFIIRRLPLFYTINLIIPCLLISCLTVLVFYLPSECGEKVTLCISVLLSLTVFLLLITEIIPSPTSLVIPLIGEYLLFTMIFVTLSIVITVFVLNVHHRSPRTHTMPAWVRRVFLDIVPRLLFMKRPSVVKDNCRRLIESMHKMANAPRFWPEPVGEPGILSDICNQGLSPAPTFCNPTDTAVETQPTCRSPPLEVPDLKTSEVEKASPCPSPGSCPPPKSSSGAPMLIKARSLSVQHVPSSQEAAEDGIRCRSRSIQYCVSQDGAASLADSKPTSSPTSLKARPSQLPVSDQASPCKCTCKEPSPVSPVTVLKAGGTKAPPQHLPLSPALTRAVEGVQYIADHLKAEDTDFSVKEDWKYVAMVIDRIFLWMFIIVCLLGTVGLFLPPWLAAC
T1 sequence (P12390 whole entry): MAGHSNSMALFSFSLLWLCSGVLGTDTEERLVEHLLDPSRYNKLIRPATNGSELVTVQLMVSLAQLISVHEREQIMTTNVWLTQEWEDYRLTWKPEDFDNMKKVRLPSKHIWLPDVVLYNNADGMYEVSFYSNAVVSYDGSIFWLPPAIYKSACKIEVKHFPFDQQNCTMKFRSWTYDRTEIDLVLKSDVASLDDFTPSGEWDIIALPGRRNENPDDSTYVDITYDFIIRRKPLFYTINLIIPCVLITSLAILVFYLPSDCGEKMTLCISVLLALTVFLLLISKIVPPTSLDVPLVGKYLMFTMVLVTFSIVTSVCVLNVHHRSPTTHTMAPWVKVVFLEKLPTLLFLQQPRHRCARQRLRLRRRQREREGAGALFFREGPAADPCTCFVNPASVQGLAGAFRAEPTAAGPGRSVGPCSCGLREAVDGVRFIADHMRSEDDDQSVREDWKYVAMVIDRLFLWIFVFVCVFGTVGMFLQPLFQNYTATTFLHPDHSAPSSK

[3] = target: Neuronal acetylcholine receptor; alpha2/beta2 (Rattus norvegicus, UniProt P12389+P12390); test: Binding affinity towards rat alpha2-beta2 neuronal nAChR expressed in Xenopus oocytes using [3H]epibatidine as radioligand; type: cell-based, Oocyte
Neuronal acetylcholine receptor; alpha2/beta2, sequence (P12389 whole entry): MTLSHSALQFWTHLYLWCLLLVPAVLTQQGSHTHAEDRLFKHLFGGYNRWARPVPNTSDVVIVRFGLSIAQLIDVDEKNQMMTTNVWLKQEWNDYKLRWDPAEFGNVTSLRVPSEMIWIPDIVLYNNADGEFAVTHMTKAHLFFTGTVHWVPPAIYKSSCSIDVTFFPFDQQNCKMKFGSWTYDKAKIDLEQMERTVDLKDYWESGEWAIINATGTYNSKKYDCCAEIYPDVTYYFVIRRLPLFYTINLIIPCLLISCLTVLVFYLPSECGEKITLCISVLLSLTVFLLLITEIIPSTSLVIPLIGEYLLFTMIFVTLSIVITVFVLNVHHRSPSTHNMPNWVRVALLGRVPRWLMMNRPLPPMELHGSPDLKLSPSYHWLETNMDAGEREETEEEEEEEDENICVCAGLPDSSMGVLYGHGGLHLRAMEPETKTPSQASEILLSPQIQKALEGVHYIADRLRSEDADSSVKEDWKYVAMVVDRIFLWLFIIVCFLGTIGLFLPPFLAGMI
Neuronal acetylcholine receptor; alpha2/beta2, sequence (P12390 whole entry): as the sequence (P12390 whole entry) above

[4] = target: Neuronal acetylcholine receptor; alpha2/beta4 (Rattus norvegicus, UniProt P12389+P12392); test: Binding affinity towards rat Nicotinic acetylcholine receptor alpha2-beta4 expressed in Xenopus oocytes using [3H]epibatidine as radioligand; type: cell-based, Oocyte
Neuronal acetylcholine receptor; alpha2/beta4, sequence (P12389 whole entry): as the sequence (P12389 whole entry) above
Neuronal acetylcholine receptor; alpha2/beta4, sequence (P12392 whole entry): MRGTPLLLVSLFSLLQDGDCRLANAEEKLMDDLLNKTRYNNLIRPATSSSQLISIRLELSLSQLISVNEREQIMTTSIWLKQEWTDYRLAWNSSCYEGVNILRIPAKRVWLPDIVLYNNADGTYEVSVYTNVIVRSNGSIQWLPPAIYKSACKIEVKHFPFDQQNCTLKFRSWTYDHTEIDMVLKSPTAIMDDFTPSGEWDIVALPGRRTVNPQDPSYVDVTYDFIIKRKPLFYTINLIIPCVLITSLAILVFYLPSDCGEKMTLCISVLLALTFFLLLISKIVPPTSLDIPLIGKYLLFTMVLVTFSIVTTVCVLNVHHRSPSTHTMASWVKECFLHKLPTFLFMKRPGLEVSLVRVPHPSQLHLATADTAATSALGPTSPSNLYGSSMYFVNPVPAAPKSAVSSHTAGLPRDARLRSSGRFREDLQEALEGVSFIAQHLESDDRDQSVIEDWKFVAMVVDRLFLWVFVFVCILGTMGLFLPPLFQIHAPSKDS

[5] = target: T2, Neuronal acetylcholine receptor; alpha4/beta4 (Rattus norvegicus, UniProt P09483+P12392); test: Functional potency measured as stimulation at rat Nicotinic acetylcholine receptor alpha4-beta4 expressed in Xenopus oocytes; type: cell-based, Oocyte
T2 sequence (P09483 whole entry): as the sequence (P09483 whole entry) above
T2 sequence (P12392 whole entry): as the sequence (P12392 whole entry) above

[6] = target: T2, Neuronal acetylcholine receptor; alpha4/beta4; test: Binding affinity towards rat Nicotinic acetylcholine receptor alpha4-beta4 expressed in Xenopus oocytes using [3H]epibatidine as radioligand; type: cell-based, Oocyte
[7] = target: Neuronal acetylcholine receptor; alpha4/beta4 (Rattus norvegicus) (UniProt P09483+P12392); test: Functional potency measured as maximum stimulation at rat Nicotinic acetylcholine receptor alpha4-beta4 expressed in Xenopus oocytes; type: cell-based; conditions: Oocyte
[8] = target: Neuronal acetylcholine receptor; alpha4/beta2 (Rattus norvegicus) (UniProt P09483+P12390); test: Functional potency measured as maximum stimulation at rat Nicotinic acetylcholine receptor alpha4-beta2 expressed in Xenopus oocytes; type: cell-based; conditions: Oocyte
[9] = target: Neuronal acetylcholine receptor; alpha3/beta2 (Rattus norvegicus, UniProt P04757+P12390); test: Binding affinity towards rat Nicotinic acetylcholine receptor alpha3-beta2 expressed in Xenopus oocytes using [3H]epibatidine as radioligand; type: cell-based, Oocyte
Neuronal acetylcholine receptor; alpha3/beta2, sequence (P04757 whole entry): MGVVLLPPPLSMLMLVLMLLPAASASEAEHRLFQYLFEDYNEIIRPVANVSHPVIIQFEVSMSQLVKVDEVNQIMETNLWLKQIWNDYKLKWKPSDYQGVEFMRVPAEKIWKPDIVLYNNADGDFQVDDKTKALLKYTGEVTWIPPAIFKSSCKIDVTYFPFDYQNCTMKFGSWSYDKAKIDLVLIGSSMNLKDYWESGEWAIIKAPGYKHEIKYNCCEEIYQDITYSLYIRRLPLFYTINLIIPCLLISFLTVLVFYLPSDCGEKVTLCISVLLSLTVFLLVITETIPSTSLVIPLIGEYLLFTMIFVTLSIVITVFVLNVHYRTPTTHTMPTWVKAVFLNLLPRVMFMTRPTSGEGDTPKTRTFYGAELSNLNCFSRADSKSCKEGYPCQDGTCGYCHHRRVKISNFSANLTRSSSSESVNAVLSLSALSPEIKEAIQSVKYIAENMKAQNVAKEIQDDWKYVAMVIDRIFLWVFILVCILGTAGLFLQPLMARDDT
Neuronal acetylcholine receptor; alpha3/beta2, sequence (P12390 whole entry): as the sequence (P12390 whole entry) above

[10] = target: T3, Neuronal acetylcholine receptor; alpha3/beta4 (Rattus norvegicus, UniProt P04757+P12392); test: Functional potency measured as stimulation at rat Nicotinic acetylcholine receptor alpha3-beta4 expressed in Xenopus oocytes; type: cell-based, Oocyte
T3 sequence (P04757 whole entry): as the sequence (P04757 whole entry) above
T3 sequence (P12392 whole entry): as the sequence (P12392 whole entry) above

[11] = target: T3, Neuronal acetylcholine receptor; alpha3/beta4; test: Binding affinity towards rat Nicotinic acetylcholine receptor alpha3-beta4 expressed in Xenopus oocytes using [3H]epibatidine as radioligand; type: cell-based, Oocyte
[12] = target: Neuronal acetylcholine receptor; alpha3/beta4 (Rattus norvegicus) (UniProt P04757+P12392); test: Functional potency measured as maximum stimulation at rat Nicotinic acetylcholine receptor alpha3-beta4 expressed in Xenopus oocytes; type: cell-based; conditions: Oocyte
[13] = target: T1, Neuronal acetylcholine receptor; alpha4/beta2; test: Functional potency measured as stimulation at rat Nicotinic acetylcholine receptor alpha4-beta2 expressed in Xenopus oocytes; type: cell-based, Oocyte
[14] = target: T1, Neuronal acetylcholine receptor; alpha4/beta2; test: Inhibition of [3H]epibatidine binding to Nicotinic acetylcholine receptor alpha4-beta2 from rat membranes
[15] = target: T1, Neuronal acetylcholine receptor; alpha4/beta2; test: Inhibition of [3H]nicotine binding to Nicotinic acetylcholine receptor alpha4-beta2 from rat membranes
[16] = species on record: Mus musculus; test: Antinociceptive activity was tested in the mouse tail-flick test; type: functional
[17] = species on record: Mus musculus; test: animal or person
[18] = species on record: Mus musculus; test: animal or person; conditions: Tail
[19] = species on record: Mus musculus; test: Antinociceptive activity was tested in the mouse hot plate test; type: functional
[20] = species on record: Mus musculus; test: Blockage of Antinociceptive activity of nicotine was tested in the mouse hot plate test; type: functional
[21] = species on record: Mus musculus; test: Blockage of Antinociceptive activity of nicotine was tested in the mouse tail flick test; type: functional
[22] = system: Mus musculus; test: Antinociceptive activity was tested in the mouse hot plate test at 15 mg/kg; type: functional
[23] = system: Mus musculus; test: Antinociceptive activity was tested in the mouse tail-flick test at 15 mg/kg; type: functional
[24] = target: Neuronal acetylcholine receptor subunit alpha-7 (Rattus norvegicus, UniProt Q05941); test: Inhibition of [125I]-iodo-MLA binding to Nicotinic acetylcholine receptor alpha-7 from rat brain membranes; type: cell membranes, Membrane
Neuronal acetylcholine receptor subunit alpha-7, sequence (Q05941 whole entry): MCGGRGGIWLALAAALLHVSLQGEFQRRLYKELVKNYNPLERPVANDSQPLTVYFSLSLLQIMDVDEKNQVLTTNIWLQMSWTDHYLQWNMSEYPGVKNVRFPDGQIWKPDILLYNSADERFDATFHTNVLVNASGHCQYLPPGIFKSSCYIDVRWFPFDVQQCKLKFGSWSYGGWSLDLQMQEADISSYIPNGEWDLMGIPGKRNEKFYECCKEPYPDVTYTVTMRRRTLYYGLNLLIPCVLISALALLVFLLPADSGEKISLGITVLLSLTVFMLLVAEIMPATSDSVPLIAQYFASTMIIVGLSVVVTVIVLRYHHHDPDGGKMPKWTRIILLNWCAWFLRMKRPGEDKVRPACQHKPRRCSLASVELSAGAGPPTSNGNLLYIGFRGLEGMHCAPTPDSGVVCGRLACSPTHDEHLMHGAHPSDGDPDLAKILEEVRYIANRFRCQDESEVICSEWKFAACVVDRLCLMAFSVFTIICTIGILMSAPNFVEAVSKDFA

[25] = system: Mus musculus; test: Blockage of antinociceptive activity was tested in the mouse tail-flick test at 0.01 mg/kg; type: functional
[26] = system: Mus musculus; test: Blockage of antinociceptive activity was tested in the mouse hot plate test at 0.01 mg/kg; type: functional
[27] = species on record: Mus musculus; test: Antinociceptive activity was tested in the mouse tail-flick test from ref 15; type: functional
[28] = species on record: Mus musculus; test: Antinociceptive activity was tested in the mouse tail-flick test from ref 17; type: functional
[29] = species on record: Mus musculus; test: Spontaneous activity in mice from ref 15; type: functional
[30] = species on record: Mus musculus; test: Drug discrimination in mice from ref 15
[31] = target: T1, Neuronal acetylcholine receptor; alpha4/beta2; test: inhibition of [3H]nicotine binding to alpha4-beta2 nACh receptor from rat membranes from ref 18
[32] = species on record: Mus musculus; test: Antinociceptive activity was tested in the mouse tail-flick test at 32.5 nM; type: functional
[33] = species on record: Mus musculus; test: Blockage of antinociceptive activity of nicotine was tested in the mouse hot plate test; type: functional
[34] = target: T1, Neuronal acetylcholine receptor; alpha4/beta2; test: [3H](+/-)-epibatidine binding to Nicotinic acetylcholine receptor alpha4-beta2 from rat membranes

Nc1ccc(C2CC3CCC2N3)cn1 (stereo unspecified)
Activity [1]: 57% | Ki [2]: 0.35 nM | Ki [3]: 0.062 nM | Ki [4]: 3.5 nM | EC50 [5]: 1840 nM | Ki [6]: 4.3 nM | Max [7]: 41% | Max [8]: 29% | Ki [9]: 0.077 nM | EC50 [10]: 3240 nM | Ki [11]: 7.2 nM | Max [12]: 82% | EC50 [13]: 7600 nM

O=S(=O)(OC(F)(F)F)c1ccc(C2CC3CCC2N3)cn1 (stereo unspecified)
Ki [2]: ~100 nM | Ki [3]: > 10 nM | Ki [9]: ~100 nM

Ic1ccc(C2CC3CCC2N3)cn1 (stereo unspecified)
Ki [14]: 0.09 nM

Cc1ccc(C2CC3CCC2N3)cn1 (stereo unspecified)
Ki [15]: 0.13 nM

Clc1ccc(C2CC3CCC2N3)cn1 (stereo unspecified) [EPIBATIDINE]
ED50 [16]: > 1000 µg/kg | Max [7]: 71% | Max [8]: 58% | Max [12]: 39% | ED50 [17]: 4 µg/kg | ED50 [18]: 6 µg/kg

Brc1ccc(C2CC3CCC2N3)cn1 (stereo unspecified)
Ki [2]: 0.01 nM | Ki [3]: 0.013 nM | Ki [4]: 0.055 nM | EC50 [5]: 20 nM | Ki [6]: 0.044 nM | Max [7]: 102% | Max [8]: 65% | Ki [9]: 0.004 nM | EC50 [10]: 189 nM | Ki [11]: 0.22 nM | Max [12]: 82% | EC50 [13]: 94 nM

Fc1cc(C2CC3CCC2N3)cnc1Cl (stereo unspecified)
ED50 [19]: 9 µg/kg | ED50 [16]: 8 µg/kg | Ki [14]: 0.025 nM

Clc1ncc(C2CC3CCC2N3)cc1-c1ccccc1 (stereo unspecified)
ED50 [19]: 1000 µg/kg | ED50 [16]: 700 µg/kg

Fc1ncc([C@H]2C[C@@H]3CC[C@H]2N3)cc1-c1ccccc1
AD50 [20]: 700 µg/kg | AD50 [21]: 80 µg/kg | inhibition in vivo at 15 mg/kg [22]: 10% | inhibition in vivo at 15 mg/kg [23]: 5% | Ki [14]: 0.26 nM

Clc1ncc(C2CC3CCC2N3)cc1Br (stereo unspecified)
ED50 [19]: 20 µg/kg | ED50 [16]: 30 µg/kg | Ki [24]: 152 nM

Fc1ncc(C2CC3CCC2N3)cc1-c1ccccc1 (racemic)
AD50 [20]: 1200 µg/kg | AD50 [21]: 500 µg/kg | inhibition in vivo at 15 mg/kg [22]: 4% | inhibition in vivo at 15 mg/kg [23]: 3% | Ki [14]: 0.24 nM

CN1[C@H]2CC[C@@H]1[C@@H](c1ccc(Cl)nc1)C2
ED50 [16]: 9 µg/kg | Ki [15]: 0.11 nM

Clc1ncc(C2CC3CCC2N3)cc1I (stereo unspecified)
Activity [25]: 4% | ED50 [19]: 140 µg/kg | ED50 [16]: 240 µg/kg | Ki [14]: 0.008 nM | Activity [26]: 0%

Clc1ccc([C@H]2C[C@@H]3CC[C@H]2N3)cn1 [(-)-EPIBATIDINE]
ED50 [19]: 4 µg/kg | ED50 [16]: 6 µg/kg | ED50 [27]: 6.1 µg/kg | ED50 [28]: 9 µg/kg | ED50 [29]: 1.8 µg/kg | ED50 [30]: 1 µg/kg

Fc1ccc(C2CC3CCC2N3)cn1 (stereo unspecified)
Ki [2]: 0.0092 nM | Ki [3]: 0.0024 nM | Ki [4]: 1.2 nM | EC50 [5]: 239 nM | Ki [6]: 0.48 nM | Max [7]: 131% | Max [8]: 41% | Ki [9]: 0.0038 nM | EC50 [10]: 319 nM | Ki [11]: 2.1 nM | Max [12]: 40% | EC50 [13]: 254 nM | Ki [31]: 0.037 nM

CN(C)c1ccc(C2CC3CCC2N3)cn1 (stereo unspecified)
Activity [32]: 10% | Ki [2]: > 100 nM | Ki [3]: > 100 nM | Ki [9]: > 100 nM

[N-]=[N+]=Nc1cc(C2CC3CCC2N3)cnc1Cl (stereo unspecified) [AZIDOEPIBATIDINE]
Ki [14]: 0.027 nM | Ki [24]: 9.7 nM

CN1[C@@H]2CC[C@H]1[C@H](c1ccc(Cl)nc1)C2
Ki [15]: 0.26 nM

Nc1cc(C2CC3CCC2N3)cnc1Cl (stereo unspecified)
AD50 [33]: 0.03 µg/kg and 0.06 µg/kg | ED50 [19]: 20 µg/kg | ED50 [16]: 20 µg/kg | Ki [14]: 0.01 nM | Ki [24]: 13.9 nM

CC(=O)OCC[N+](C)(C)C
Max [7]: 98% | Max [8]: 95% | Max [12]: 100%

Fc1ncc([C@@H]2C[C@H]3CC[C@@H]2N3)cc1-c1ccccc1
AD50 [20]: 2400 µg/kg | AD50 [21]: 1000 µg/kg | inhibition in vivo at 15 mg/kg [22]: 8% | inhibition in vivo at 15 mg/kg [23]: 7% | Ki [14]: 0.24 nM

CC(=O)N1C2CCC1C(c1ccc(Cl)nc1)C2 (stereo unspecified)
ED50 [16]: > 1000 µg/kg

Clc1ccc([C@@H]2C[C@H]3CC[C@@H]2N3)cn1 [(+)-EPIBATIDINE]
ED50 [27]: 6.6 µg/kg | ED50 [28]: 7 µg/kg | ED50 [29]: 1.2 µg/kg | ED50 [30]: 0.9 µg/kg

Clc1cc(C2CC3CCC2N3)cnc1Cl (stereo unspecified)
ED50 [19]: 30 µg/kg | ED50 [16]: 50 µg/kg | Ki [14]: 0.014 nM | Ki [24]: 1.12 nM

CCN1C2CCC1C(c1ccc(Cl)nc1)C2 (racemic)
Ki [34]: 13.6 nM

O=c1ccc(C2CC3CCC2N3)c[nH]1 (stereo unspecified)
Ki [2]: ~100 nM | Ki [3]: > 100 nM | Ki [9]: > 100 nM

CCCN1C2CCC1C(c1ccc(Cl)nc1)C2 (single isomer, unassigned; (-))
Ki [15]: 10.8 nM

c1cncc(C2CC3CCC2N3)c1 (stereo unspecified) [DESCHLOROEPIBATIDINE]
Ki [2]: 0.0085 nM | Ki [3]: 0.028 nM | Ki [4]: 3.3 nM | EC50 [5]: 982 nM | Ki [6]: 3.2 nM | Max [7]: 147% | Max [8]: 112% | Ki [9]: 0.0031 nM | EC50 [10]: 702 nM | Ki [11]: 11 nM | Max [12]: 61% | EC50 [13]: 3630 nM
